Assay results published in patent US12209079B2 (GENERAL INCORPORATED ASSOCIATION PHARMA VALLEY PROJECT …, priority 2017, dated 2025).

What was measured:
IDO in A431 cells = target: T1, IDO in A431 cells (Homo sapiens, UniProt P14902); assay: IDO cell-based assay, kynurenine production in IFN-γ stimulated A431 cells; settings: A-431, 24 h; final concentration of the compound 10 μM; rate relative to culture without compound
T1 construct: endogenous in cells; host or cells: A431 cells, IFN-γ stimulated
Procedure, shortened: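 Kynurenine output was read by absorbance at 460 nm after p-dimethylbenzaldehyde/trichloroacetic acid reagent, background-corrected, and given as % of untreated wells. Before the read, cells in 178 μM L-tryptophan medium had 1 h compound preincubation, then 24 h IFN-γ stimulation (added as 100 ng/mL dilution).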

TDO in A172 cells = target: T2, TDO in A172 cells (Homo sapiens, UniProt P48775); assay: TDO cell-based assay, kynurenine production in A172 cells; settings: A 172; final concentration of the compound 10 μM; rate relative to culture without compound
T2 construct: endogenous in cells; host or cells: A172 cells
Procedure, shortened: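 A172 cells were preincubated with compound for 1 h, then given L-tryptophan (final 524 μM) for 24 h at 37 °C. Kynurenine was read at 460 nm after p-dimethylbenzaldehyde/TCA reagent, background-subtracted, and expressed as % of no-compound production.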

[1] = target: rhIDO (recombinant human IDO) (Homo sapiens, UniProt P14902); assay: Enzyme assay using rhIDO (rate of kynurenine production); format: biochemical; settings: 2 h; final concentration of the compound 10 μM; rate relative to reaction without compound; read-out: rhIDO-mediated kynurenine production
Procedure, shortened: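 Kynurenine formation, expressed as % of uncompounded reaction after background subtraction, was read by absorbance at 490 nm following TCA stop, 50 °C hydrolysis and Ehrlich-type p-dimethylbenzaldehyde staining. Recombinant human IDO with ascorbate/methylene blue/catalase was pre-exposed to compound 10 min, then reacted 120 min at 37 °C after adding 2 mM tryptophan stock.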

T2 sequence (P48775 whole entry): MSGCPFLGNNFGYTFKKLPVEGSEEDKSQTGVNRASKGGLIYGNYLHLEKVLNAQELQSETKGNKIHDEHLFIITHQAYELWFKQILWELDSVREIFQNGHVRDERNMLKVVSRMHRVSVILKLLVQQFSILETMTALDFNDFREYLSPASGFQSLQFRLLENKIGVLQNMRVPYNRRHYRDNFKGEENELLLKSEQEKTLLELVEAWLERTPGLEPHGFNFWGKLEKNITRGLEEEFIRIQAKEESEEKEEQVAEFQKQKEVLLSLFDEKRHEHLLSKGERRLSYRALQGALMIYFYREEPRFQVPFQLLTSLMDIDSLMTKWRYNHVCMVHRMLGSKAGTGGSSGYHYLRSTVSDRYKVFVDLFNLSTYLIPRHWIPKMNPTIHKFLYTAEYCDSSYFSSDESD
T1 sequence (P14902 whole entry): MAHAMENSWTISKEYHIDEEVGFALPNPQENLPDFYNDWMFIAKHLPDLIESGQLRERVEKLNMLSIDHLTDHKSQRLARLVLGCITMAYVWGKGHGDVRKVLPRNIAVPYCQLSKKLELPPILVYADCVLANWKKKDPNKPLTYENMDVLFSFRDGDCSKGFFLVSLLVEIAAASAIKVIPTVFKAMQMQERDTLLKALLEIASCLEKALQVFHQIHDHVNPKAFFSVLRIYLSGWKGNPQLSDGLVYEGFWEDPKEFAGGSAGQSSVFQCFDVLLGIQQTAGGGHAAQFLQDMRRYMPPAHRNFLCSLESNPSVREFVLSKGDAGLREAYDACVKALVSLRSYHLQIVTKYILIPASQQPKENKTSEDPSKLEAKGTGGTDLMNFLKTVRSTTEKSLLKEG
rhIDO (recombinant human IDO), sequence (P14902 whole entry): as above

Row | Structure (SMILES) | remaining activity at 10 µM (IDO in A431 cells) [%] | remaining activity at 10 µM (TDO in A172 cells) [%] | remaining activity at 10 µM [1] [%]
1 | Cl.Cl.N=C(N)SCc1ccccc1CSC(=N)N [Compound 1, 1,2-phenylenebis(methylene) dicarbamimidothioate dihydrochloride] | 11 | -3 | 26
2 | Br.Br.N=C(N)SCc1ccc(F)cc1CSC(=N)N [Compound 2, (4-fluoro-1,2-phenylene)bis(methylene) dicarbamimidothioate dihydrobromide] | 7 | 7 | 11
3 | Br.Br.N=C(N)SCc1ccc(Cl)cc1CSC(=N)N [Compound 7, (4-chloro-1,2-phenylene)bis(methylene) dicarbamimidothioate dihydrobromide] | 0 | -1 | 10
4 | Br.Br.N=C(N)SCc1ccc(Br)cc1CSC(=N)N [Compound 10, (4-bromo-1,2-phenylene)bis(methylene) dicarbamimidothioate dihydrobromide] | -1 | 2 | 1
5 | Br.Br.N=C(N)SCc1cscc1CSC(=N)N [Compound 15, thiophene-3,4-diylbis(methylene) dicarbamimidothioate dihydrobromide] | 12 | 7 | 22
6 | c1ccc(CSC2=NCN(CC3CCCCC3)CN2)c(CSC2=NCN(CC3CCCCC3)CN2)c1 [Compound 29, 1,2-bis(((5-(cyclohexylmethyl)-1,4,5,6-tetrahydro-1,3,5-triazin-2-yl)thio)methyl)benzene] | 10 | 0 | 23
7 | Br.Br.N=C(N)SCc1ccsc1CSC(=N)N [Compound 31, thiophene-2,3-diylbis(methylene) dicarbamimidothioate dihydrobromide] | 13 | 20 | 11
8 | Cl.Cl.c1ccc(CCN2CN=C(SCc3cscc3CSC3=NCN(CCc4ccccc4)CN3)NC2)cc1 [Compound 33, 3,4-Bis{[(5-phenethyl-1,4,5,6-tetrahydro-1,3,5-triazin-2-yl)thio]methyl}thiophene dihydrochloride] | 3 | 4 | 37
9 | Clc1cc(CSC2=NCN(CCc3ccccc3)CN2)c(CSC2=NCN(CCc3ccccc3)CN2)cc1Cl [Compound 37, 6,6′-(((4,5-Dichloro-1,2-phenylene)bis(methylene))bis(sulfanediyl))bis(3-phenethyl-1,2,3,4-tetrahydro-1,3,5-triazine)] | 1 | -9 | < 9
10 | N/C(=N\c1ccc(Br)cc1)SCc1ccc(Br)cc1CS/C(N)=N/c1ccc(Br)cc1 [Compound 49, (4-Bromo-1,2-phenylene)bis(methylene) (E,E)-bis(N′-(4-bromophenyl)carbamimidothioate)] | 4 | 8 | 1
11 | Clc1cc(CSC2=NCN(CC3CCCCC3)CN2)c(CSC2=NCN(CC3CCCCC3)CN2)cc1Cl [Compound 50, 6,6′-(((4,5-Dichloro-1,2-phenylene)bis(methylene))bis(sulfanediyl))bis(3-(cyclohexylmethyl)-1,2,3,4-tetrahydro-1,3,5-triazine)] | 4 | 4 | 9
12 | Brc1ccc(CSC2=NCN(CC3CCCCC3)CN2)c(CSC2=NCN(CC3CCCCC3)CN2)c1 [Compound 52, 6,6′-(((4-Bromo-1,2-phenylene)bis(methylene))bis(sulfanediyl))bis(3-(cyclohexylmethyl)-1,2,3,4-tetrahydro-1,3,5-triazine)] | 1 | 5 | 14
13 | Br.N#Cc1ccc(CNC(=O)c2ccc(Br)cc2CSC(=N)N)cc1 [Compound 76, 5-Bromo-2-((4-cyanobenzyl)carbamoyl)benzyl carbamimidothioate hydrobromide] | 82 | 24 | 78
14 | Br.Br.N/C(=N\c1ccc(F)cc1F)SCc1ccccc1CS/C(N)=N/c1ccc(F)cc1F [Compound 95, 1,2-Phenylenebis(methylene) (E,E)-bis(N-(2,4-difluorophenyl)carbamimidothioate)dihydrobromide] | 2 | -7 | 3
15 | Br.N#Cc1ccc(CNC(=O)c2cc(Br)ccc2CSC(=N)N)cc1 [Compound 103, 4-Bromo-2-((4-cyanobenzyl)carbamoyl)benzyl carbamimidothioate hydrobromide] | 3 | 18 | 0
